{"source": "paper PMC3062711", "about": "(Biochimica et biophysica acta, 2010)", "target": "human TRPA1 channel (hTRPA1) (Homo sapiens, UniProt O75762)", "sequence (O75762 whole entry)": "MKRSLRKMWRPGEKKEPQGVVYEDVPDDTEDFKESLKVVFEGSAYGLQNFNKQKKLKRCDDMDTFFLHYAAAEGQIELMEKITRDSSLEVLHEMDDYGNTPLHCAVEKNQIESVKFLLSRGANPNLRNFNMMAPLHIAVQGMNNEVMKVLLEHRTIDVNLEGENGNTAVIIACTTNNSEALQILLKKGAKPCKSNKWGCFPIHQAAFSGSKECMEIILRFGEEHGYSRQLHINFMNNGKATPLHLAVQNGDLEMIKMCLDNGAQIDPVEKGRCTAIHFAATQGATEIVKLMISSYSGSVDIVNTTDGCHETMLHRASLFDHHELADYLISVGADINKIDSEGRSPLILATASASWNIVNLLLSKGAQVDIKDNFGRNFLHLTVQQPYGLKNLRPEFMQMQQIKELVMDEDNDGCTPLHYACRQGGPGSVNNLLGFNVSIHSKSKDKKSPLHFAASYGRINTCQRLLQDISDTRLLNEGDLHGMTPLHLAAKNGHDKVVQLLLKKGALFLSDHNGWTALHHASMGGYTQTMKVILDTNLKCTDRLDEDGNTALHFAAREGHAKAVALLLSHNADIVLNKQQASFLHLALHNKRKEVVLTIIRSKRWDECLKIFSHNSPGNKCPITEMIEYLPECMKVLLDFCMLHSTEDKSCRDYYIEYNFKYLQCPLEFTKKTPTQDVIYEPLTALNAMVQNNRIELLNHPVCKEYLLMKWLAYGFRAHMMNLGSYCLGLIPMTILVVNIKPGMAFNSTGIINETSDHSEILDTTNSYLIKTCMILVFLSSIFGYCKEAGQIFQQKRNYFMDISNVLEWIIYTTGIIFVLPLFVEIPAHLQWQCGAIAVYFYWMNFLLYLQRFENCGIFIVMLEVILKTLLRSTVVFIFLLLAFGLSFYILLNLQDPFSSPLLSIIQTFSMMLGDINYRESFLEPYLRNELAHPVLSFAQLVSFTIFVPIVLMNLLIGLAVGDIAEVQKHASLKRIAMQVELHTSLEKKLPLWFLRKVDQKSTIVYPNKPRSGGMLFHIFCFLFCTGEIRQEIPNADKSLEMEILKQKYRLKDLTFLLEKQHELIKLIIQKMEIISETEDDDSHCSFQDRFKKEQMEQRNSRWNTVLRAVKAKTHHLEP", "experiment": "inside-out patch clamp recording, hTRPA1 expressed in HEK293T cells", "type": "cell-based"}
{"substance": "Ruthenium red [RR]", "values": [{"measurement": "IC50", "result": "~1800", "unit": "nM"}]}
